In article PMC7955167 (Structure(London, England:1993), 2021):
Changes are numbered by the printed parent chain. Numbers in names are those of the source.

Columns and labels:
IRAK3 = biological target: T1, IRAK3 (Homo sapiens, UniProt Q9Y616); assay: thermal shift assay dose response with isothermal analysis at […]°C; assay type: binding
T1 construct: pseudokinase domain, residues 145–454
T1 sequence (Q9Y616 145-454): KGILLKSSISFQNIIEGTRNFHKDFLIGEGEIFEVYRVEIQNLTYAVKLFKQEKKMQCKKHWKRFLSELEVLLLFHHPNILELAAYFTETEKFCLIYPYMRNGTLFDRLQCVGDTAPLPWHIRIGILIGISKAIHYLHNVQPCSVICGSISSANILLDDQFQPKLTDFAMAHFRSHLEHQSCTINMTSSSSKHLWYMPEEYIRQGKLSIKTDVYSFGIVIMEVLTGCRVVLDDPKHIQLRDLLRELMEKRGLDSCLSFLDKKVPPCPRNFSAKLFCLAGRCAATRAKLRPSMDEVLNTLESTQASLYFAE

IRAK2 = biological target: T2, IRAK2 (Homo sapiens, UniProt O43187); assay: as above; assay type: binding
T2 construct: pseudokinase domain, residues 192-507
T2 sequence (O43187 192-507): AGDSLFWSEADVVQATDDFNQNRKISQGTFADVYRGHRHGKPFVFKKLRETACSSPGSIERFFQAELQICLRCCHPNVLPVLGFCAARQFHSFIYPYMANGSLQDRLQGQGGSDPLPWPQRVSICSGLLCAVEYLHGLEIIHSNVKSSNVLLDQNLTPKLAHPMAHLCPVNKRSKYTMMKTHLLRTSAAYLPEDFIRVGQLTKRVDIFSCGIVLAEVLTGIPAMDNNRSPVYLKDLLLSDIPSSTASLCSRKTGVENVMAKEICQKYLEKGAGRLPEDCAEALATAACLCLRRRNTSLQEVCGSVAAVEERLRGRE

[1] = biological target: the molecule itself; assay: crystal structure; IRAK3_(145-454) at 7-10 mg/mL, 0.1 M citric acid pH 5.0, 1.62 M ammonium sulfate, 20°C, hanging drop; 2.9 Å; three molecules in the asymmetric unit
[2] = biological target: the molecule itself; assay: SEC; analytical gel filtration, Superdex Increase 3.2/300, 20 mM HEPES pH 7.5, 200 mM NaCl, 10% glycerol, 1 mM DTT; 25 μl loaded at 1-5 mg/ml; fractions on SDS-PAGE; monomer to dimer

Molecule `Nc1ncnc2c1ncn2[C@@H]1O[C@H](COP(=O)(O)OP(=O)(O)OP(=O)(O)O)[C@@H](O)[C@H]1O` [ATP] has a Kd (IRAK3) of ~196 µM and a Kd (IRAK2) of 9.8 ± 3.8 µM.

B1: IRAK3 pseudokinase domain (residues 145-454), wild type (domain or fragment, human, UniProt Q9Y616 145-454, looked up)
chain: T1 sequence (Q9Y616 145-454)
notes: Interleukin-1 receptor associated kinase 3 (IRAK3), human, pseudokinase domain, residues 145-454; Construct 6His-TEV-GST-3C-IRAK3 145-454; the 6His-GST tag was cut off with PreScission protease; also called IRAK3_(145-454); IRAK3-PK; source: Sf21 insect cells (baculovirus), purified (Ni-NTA, GSH sepharose, PreScission cleavage, gel filtration); not shown: His6, N-terminal, cleaved; GST, …
B1 was tested, and the “stoichiometry N” value [1] was 2.

B2: IRAK3 pseudokinase domain (residues 145-454) E214L (domain or fragment, human, UniProt Q9Y616 145-454, looked up)
chain: T1 sequence (Q9Y616 145-454) with E70L
notes: IRAK3, human, pseudokinase domain, residues 145-454, with E214L; Construct 6His-TEV-GST-3C-IRAK3 145-454 E214L; PDB 6RUU holds the wild-type parent; also called IRAK3_(145-454) E214L; source: Sf21 insect cells (baculovirus), purified (Ni-NTA, GSH sepharose, PreScission cleavage, gel filtration); not shown: His6, N-terminal, cleaved; GST, N-terminal, cleaved
In the case of B2, the “stoichiometry N” value [2] is reported as 2.
